Patent US20260098026A1, “M4 ACTIVATORS/MODULATORS AND USES THEREOF” (Cerevel Therapeutics, LLC, priority 2022, published 2026)

Key:
[1] = target: T1, M3 muscarinic acetylcholine receptor (mAChR) (Homo sapiens, UniProt P20309); assay: FLIPR calcium assay (Fluo 8), M3-overexpressing CHO-K1 cells; type: cell-based
T1 construct: expressed in transfected cells; host or cells: CHO-K1
Method in brief: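 CHO-K1 cells overexpressing each human receptor seeded at 15,000 per well, grown overnight at 37° C., 5% CO2, then loaded with Fluo-8 for 30 min. Compounds in HBSS added and calcium response read on FLIPR; EC50 and Emax calculated per subtype.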

M4 mAChR = target: T2, M4 mAChR (Homo sapiens, UniProt P08173); assay: cAMP TR-FRET assay with forskolin, M4-overexpressing CHO-K1 cells; type: cell-based
T2 construct: expressed in transfected cells; host or cells: CHO-K1
T2 sequence (P08173 1-479): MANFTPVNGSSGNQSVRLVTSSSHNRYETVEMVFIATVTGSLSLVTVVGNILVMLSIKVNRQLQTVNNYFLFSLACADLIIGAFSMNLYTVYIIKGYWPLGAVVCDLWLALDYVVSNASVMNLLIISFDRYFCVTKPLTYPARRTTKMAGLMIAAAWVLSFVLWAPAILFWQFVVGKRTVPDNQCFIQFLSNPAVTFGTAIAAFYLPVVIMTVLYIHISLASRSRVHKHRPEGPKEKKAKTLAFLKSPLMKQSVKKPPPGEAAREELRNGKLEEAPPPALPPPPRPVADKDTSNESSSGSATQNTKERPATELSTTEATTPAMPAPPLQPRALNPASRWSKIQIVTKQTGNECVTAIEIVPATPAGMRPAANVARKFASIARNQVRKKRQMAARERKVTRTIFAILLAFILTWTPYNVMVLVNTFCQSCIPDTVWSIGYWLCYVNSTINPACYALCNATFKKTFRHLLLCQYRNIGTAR
Method in brief: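 CHO-K1 cells overexpressing the receptor were stimulated with forskolin to raise cAMP, so that Gi-mediated agonist decreases could be measured. cAMP was quantified by TR-FRET competition between cellular cAMP and labelled donor for anti-cAMP antibody, giving potency and efficacy.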

T1 sequence (P20309 whole entry): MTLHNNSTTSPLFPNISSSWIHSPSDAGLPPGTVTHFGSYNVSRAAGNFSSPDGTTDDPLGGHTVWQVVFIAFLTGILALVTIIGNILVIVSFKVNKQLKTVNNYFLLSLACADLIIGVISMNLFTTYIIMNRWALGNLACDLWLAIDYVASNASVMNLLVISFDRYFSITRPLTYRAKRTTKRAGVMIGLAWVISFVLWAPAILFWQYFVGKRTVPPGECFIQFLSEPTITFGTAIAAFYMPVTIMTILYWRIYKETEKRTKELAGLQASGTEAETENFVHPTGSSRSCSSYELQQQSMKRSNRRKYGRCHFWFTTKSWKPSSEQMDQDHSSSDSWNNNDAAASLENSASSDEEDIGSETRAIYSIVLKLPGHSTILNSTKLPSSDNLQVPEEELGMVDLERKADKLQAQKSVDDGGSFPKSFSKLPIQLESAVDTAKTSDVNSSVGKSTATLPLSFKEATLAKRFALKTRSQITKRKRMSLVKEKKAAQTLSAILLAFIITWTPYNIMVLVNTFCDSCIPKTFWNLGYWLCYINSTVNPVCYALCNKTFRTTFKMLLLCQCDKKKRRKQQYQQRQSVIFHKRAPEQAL

| SMILES | EC50 ([1]; FLIPR) | Emax (M4 mAChR; cAMP assay) | EC50 ([1]; FLIPR calcium) | Emax (M4 mAChR; cAMP TR-FRET with forskolin) |
| --- | --- | --- | --- | --- |
| CCOC(=O)N1CC2(CC[C@@H](N3CCN(c4cc(F)cnc4-c4ccn(C(F)F)n4)CC3)C2)C1 [Compound A198] | > 10 µM | 50 to 79.9% |  |  |
| CCOC(=O)N1CC2(CC[C@@H](N3CCN(c4cc(F)cnc4-c4cccc5n[nH]cc45)CC3)C2)C1 [Compound A62] |  |  | > 10 µM | 80 to 100% |
| CCOC(=O)N1CC2(CC[C@@H](N3CCN(c4cc(F)cnc4-c4ccc(O)cc4F)CC3)C2)C1 [Compound A136] |  |  | > 10 µM | 80 to 100% |
| CCOC(=O)N1CC2(CC[C@@H](N3CCN(c4cc(F)cnc4-c4ccc(OC)c(CO)c4)CC3)C2)C1 [Compound A72] |  |  | > 10 µM | 50 to 79.9% |
| CCOC(=O)N1CC2(CC[C@H](N3CCN(c4cc(F)cnc4C4CCOCC4)CC3)C2)C1 [Compound A274] | > 10 µM | 80 to 100% |  |  |
| CCOC(=O)N1CC2(CC[C@@H](N3CCN(c4cc(F)cnc4-c4c[nH]nc4C4CC4)CC3)C2)C1 [Compound A170] | > 10 µM | 80 to 100% |  |  |
| CCOC(=O)N1CC2(CC[C@@H](N3CCN(c4cc(F)cnc4-c4cncc(C)c4)CC3)C2)C1 [Compound A31] |  |  | > 10 µM | 80 to 100% |
| CCOC(=O)N1CC2(CC[C@@H](N3CCN(c4cc(F)cnc4-c4cccc5c4cnn5C)CC3)C2)C1 [Compound A58] |  |  | > 10 µM | 80 to 100% |
| CCOC(=O)N1CC2(CC[C@@H](N3CCN(c4cc(F)cnc4-c4cnccc4C)CC3)C2)C1 [Compound A35] |  |  | > 10 µM | 80 to 100% |
| CCOC(=O)N1CC2(CC[C@@H](N3CCN(c4cc(F)cnc4-c4cnc(OC)c(C)c4)CC3)C2)C1 [Compound A111] |  |  | > 10 µM | 80 to 100% |
| CCOC(=O)N1CC2(CC[C@@H](N3CCN(c4cc(F)cnc4-c4ccn(C)c(=O)c4)CC3)C2)C1 [Compound A102] |  |  | > 10 µM | 80 to 100% |
| CCOC(=O)N1CC2(CC[C@@H](N3CCN(c4cc(F)cnc4-c4ccnc(OC)c4)CC3)C2)C1 [Compound A110] |  |  | > 10 µM | 80 to 100% |
| CCOC(=O)N1CC2(CC[C@@H](N3CCN(c4cc(F)cnc4-c4cnc(N(C)C)nc4)CC3)C2)C1 [Compound A73] |  |  | > 10 µM | 80 to 100% |
| CCOC(=O)N1CC2(CC[C@@H](N3CCN(c4cccnc4-c4cncc(C)c4)CC3)C2)C1 [Compound A25] |  |  | > 10 µM | 80 to 100% |
| CCOC(=O)N1CC2(CC[C@@H](N3CCN(c4cc(F)cnc4-c4ccc(=O)[nH]c4C)CC3)C2)C1 [Compound A201] | > 10 µM | 80 to 100% |  |  |
| CCOC(=O)N1CC2(CC[C@@H](N3CCN(c4cc(F)cnc4-c4cc(O)ncc4F)CC3)C2)C1 [Compound A175] | > 10 µM | 80 to 100% |  |  |
| CCOC(=O)N1CC2(CC[C@@H](N3CCN(c4cc(F)cnc4-c4ccnc(C)c4)CC3)C2)C1 [Compound A98] |  |  | > 10 µM | 80 to 100% |
| CCOC(=O)N1CC2(CC[C@@H](N3CCN(c4cc(F)cnc4-n4cc(C)nn4)CC3)C2)C1 [Compound A246] | > 10 µM | 80 to 100% |  |  |
| CCOC(=O)N1CC2(CC[C@@H](N3CCN(c4cc(F)cnc4-c4cnc5c(cnn5C)c4)CC3)C2)C1 [Compound A129] |  |  | > 10 µM | 80 to 100% |
| CCOC(=O)N1CC2(CC[C@@H](N3CCN(c4cc(Cl)cnc4C4CC5(COC5)C4)CC3)C2)C1 [Compound A279] | > 10 µM | 80 to 100% |  |  |
| CCOC(=O)N1CC2(CC[C@@H](N3CCN(c4cc(F)cnc4-c4ccc5cnn(C)c5c4)CC3)C2)C1 [Compound A54] |  |  | > 10 µM | 80 to 100% |
| CCOC(=O)N1CC2(CC[C@@H](N3CCN(c4cc(F)cnc4-c4ccc(F)cc4CO)CC3)C2)C1 [Compound A147] |  |  | > 10 µM | 80 to 100% |

The remaining lines, values ahead:

| EC50 ([1]; FLIPR) | Emax (M4 mAChR; cAMP assay) | EC50 ([1]; FLIPR calcium) | Emax (M4 mAChR; cAMP TR-FRET with forskolin) | SMILES |
| --- | --- | --- | --- | --- |
| > 10 µM | 19 to 49.9% |  |  | CCOC(=O)N1CC2(CC[C@@H](N3CCN(c4cc(F)cnc4-c4cccc5ncnn45)CC3)C2)C1 [Compound A178] |
|  |  | > 10 µM | 80 to 100% | CCOC(=O)N1CC2(CC[C@@H](N3CCN(c4cc(F)cnc4-c4cncc(COC)c4)CC3)C2)C1 [Compound A138] |
| > 10 µM | 80 to 100% |  |  | CCOC(=O)N1CC2(CC[C@@H](N3CCN(c4cc(F)cnc4OC4CC5(COC5)C4)CC3)C2)C1 [Compound A233] |
| > 10 µM | 19 to 49.9% |  |  | CCOC(=O)N1CC2(CC[C@@H](N3CCN(c4cc(F)cnc4-c4ccn(C(C)(C)C)n4)CC3)C2)C1 [Compound A200] |
| > 10 µM | 80 to 100% |  |  | CCOC(=O)N1CC2(CC[C@@H](N3CCN(c4cc(F)cnc4-c4ccc(Cl)cn4)CC3)C2)C1 [Compound A259] |
| > 10 µM | 80 to 100% |  |  | CCOC(=O)N1CC2(CC[C@@H](N3CCN(c4cc(F)cnc4-c4ccc(OC)nc4F)CC3)C2)C1 [Compound A180] |
|  |  | > 10 µM | 80 to 100% | CCOC(=O)N1CC2(CC[C@@H](N3CCN(c4cc(F)cnc4-c4ccnc5c4ccn5C)CC3)C2)C1 [Compound A89] |
|  |  | > 10 µM | 80 to 100% | CCOC(=O)N1CC2(CC[C@@H](N3CCN(c4cc(F)cnc4-c4cc(O)ccc4F)CC3)C2)C1 [Compound A127] |
| > 10 µM | 50 to 79.9% |  |  | CCOC(=O)N1CC2(CC[C@@H](N3CCN(c4cc(F)cnc4-c4ccc(C(F)(F)F)nn4)CC3)C2)C1 [Compound A243] |
| > 10 µM | 80 to 100% |  |  | CCOC(=O)N1CC2(CC[C@@H](N3CCN(c4cc(F)cnc4-c4ccc(OC)nc4)CC3)C2)C1 [Compound A188] |
|  |  | > 10 µM | 80 to 100% | CCOC(=O)N1CC2(CC[C@@H](N3CCN(c4cc(F)cnc4-c4ccc5nccn5c4)CC3)C2)C1 [Compound A96] |
|  |  | > 10 µM | 80 to 100% | CCOC(=O)N1CC2(CC[C@@H](N3CCN(c4cc(F)cnc4-c4cccc(O)n4)CC3)C2)C1 [Compound A143] |
|  |  | > 10 µM | 80 to 100% | CCOC(=O)N1CC2(CC[C@@H](N3CCN(c4cc(F)cnc4-c4cc(F)ccc4CO)CC3)C2)C1 [Compound A117] |
|  |  | > 10 µM | 80 to 100% | CCOC(=O)N1CC2(CC[C@@H](N3CCN(c4cc(F)cnc4-c4ccc(=O)n(C)c4)CC3)C2)C1 [Compound A123] |
| > 10 µM | 80 to 100% |  |  | CCOC(=O)N1CC2(CC[C@@H](N3CCN(c4cc(Cl)cnc4-c4cn(C)nn4)CC3)C2)C1 [Compound A256] |
| > 10 µM | 80 to 100% |  |  | CCOC(=O)N1CC2(CC[C@@H](N3CCN(c4cc(F)cnc4-c4cn(C)nc4C)CC3)C2)C1 [Compound A157] |
| > 10 µM | 80 to 100% |  |  | CCOC(=O)N1CC2(CC[C@@H](N3CCN(c4cc(F)cnc4-c4c(O)cccc4F)CC3)C2)C1 [Compound A167] |
|  |  | > 10 µM | 80 to 100% | CCOC(=O)N1CC2(CC[C@@H](N3CCN(c4cc(F)cnc4-c4cnc(F)c(F)c4)CC3)C2)C1 [Compound A79] |
| > 10 µM | 80 to 100% |  |  | CCOC(=O)N1CC2(CC[C@@H](N3CCN(c4cc(Cl)cnc4-c4cnccn4)CC3)C2)C1 [Compound A221] |
|  |  | > 10 µM | 80 to 100% | CCOC(=O)N1CC2(CC[C@@H](N3CCN(c4cc(F)cnc4-c4ccc(CO)s4)CC3)C2)C1 [Compound A88] |
| > 10 µM | 80 to 100% |  |  | CCOC(=O)N1CC2(CC[C@@H](N3CCN(c4cc(F)cnc4-c4ccn5ncnc5c4)CC3)C2)C1 [Compound A177] |
